# From the OligoGym collection
# “And” between values parts separate entries of the source, which are not always exact repeats. Identical values can stand only once. After the bases stand the sugars from the 5' end (letter, count) and the backbone: PS all phosphorothioate, else s phosphorothioate and o phosphodiester by linkage. Methylation of C is not given here. e = 2'-O-(2-methoxyethyl) (MOE); k = constrained ethyl (cEt); d = 2'-deoxy (DNA)
# Target: IRF4
# Conditions: ASO
Sequence,"target mRNA inhibition (SK-MEL-28, 4 µM)","target mRNA inhibition (MM.1R, 1 µM)",further results
"GTACTTTCTCAAAACC (sugars k3 d10 k3, PS)",70%,–,–
"AAGATGACTCCATGAG (sugars k3 d10 k3, PS)",64%,–,–
"TCCCGACACGCGCCGC (sugars k3 d10 k3, PS)",–,-12%,–
"GGTGAGAGACGAAAAC (sugars k3 d10 k3, PS)",–,-16%,–
"GGAGAAACGAGCCAGT (sugars k3 d10 k3, PS)",47%,–,–
"AACCTTAAGCTATTTG (sugars k3 d10 k3, PS)",–,–,"target mRNA inhibition (MM.1R, 0.0625 µM): -10%; target mRNA inhibition (MM.1R, 0.25 µM): -5%; target mRNA inhibition (MM.1R, 4 µM): 48%"
"TAGTTTTATGTTAGCC (sugars k3 d10 k3, PS)",75%,45%,"target mRNA inhibition (MM.1R, 0.0625 µM): 4%; target mRNA inhibition (MM.1R, 0.074 µM): -1%; target mRNA inhibition (MM.1R, 0.222 µM): 4%; target mRNA inhibition (MM.1R, 0.25 µM): 18%; target mRNA inhibition (MM.1R, 0.666 µM): 22%; target mRNA inhibition (MM.1R, 2 µM): 39%; target mRNA inhibition (MM.1R, 4 µM): 78%"
"TTTTTCCATATGACCC (sugars k3 d10 k3, PS)",75%,–,–
"ATGCTTGGCTCTGTGG (sugars k3 d10 k3, PS)",76%,–,–
"ACAGTGACTTGCATCC (sugars kkdddddddddkdkdk, PS)",–,18%,–
"GATTATATACTGGTTG (sugars kddddddddddkekek, PS)",–,48%,–
"TAAAGACCTTAACCAA (sugars k3 d10 k3, PS)",30%,–,–
"GCACACACAAGTGGCC (sugars k3 d10 k3, PS)",64%,–,–
"ACTGGCATTGAGACGG (sugars k3 d10 k3, PS)",72% and 79%,–,–
"TCAGTTTGTGAAGCAT (sugars e1 k2 d9 k2 e2, PS)",–,47%,–
"TGCCTGAACTGTGTAA (sugars k3 d10 k3, PS)",35%,–,–
"CACATCAATGTTTTAG (sugars kkdddddddddkdkdk, PS)",–,28% and 37%,–
"TCCAAAGCATAGAGTC (sugars k3 d10 k3, PS)",53%,–,–
"GAACCTGCTGGGCTGG (sugars k4 d8 k4, PS)",13%,–,–
"ATGACGACTTAAGCTA (sugars k3 d10 k3, PS)",62%,–,–

Sequence,"target mRNA inhibition (SK-MEL-28, 4 µM)","target mRNA inhibition (MM.1R, 1 µM)",further results
"GTAAAGCCCAAAGTTA (sugars k3 d10 k3, PS)",27%,–,–
"TCCTCAAAGTCATTGC (sugars k3 d10 k3, PS)",32%,–,–
"GTGTCTAAAGTCCCAT (sugars kkdddddddddkdkdk, PS)",–,20% and 5%,–
"CTGCTTGAGGTTTTCC (sugars kkdddddddddkdkdk, PS)",–,36%,–
"ACCTGAATAGGAAGAT (sugars k3 d10 k3, PS)",31%,–,–
"CAATCTTAACCTGGAG (sugars k3 d10 k3, PS)",–,40%,–
"TTTTAGTTCATACCCA (sugars k3 d10 k3, PS)",52%,–,–
"TTTCAGGAGCTAGTTT (sugars k3 d10 k3, PS)",–,8%,–
"AATATAACGGTGTTTC (sugars k3 d10 k3, PS)",–,8%,–
"ATAATTGGCACGAGGA (sugars k3 d10 k3, PS)",67%,–,–
"AGGGAGCTCATTTTGA (sugars k3 d10 k3, PS)",–,-8%,–
"TCATGATATTAGAGAC (sugars k3 d10 k3, PS)",35%,–,–
"TCCCATCCAAGAGTAG (sugars k3 d10 k3, PS)",33%,–,–
"ACTTTTAGAGAGGAGA (sugars kkkddddddddkekek, PS)",–,21%,–
"TAATTATGCAGAAGCT (sugars k3 d10 k3, PS)",-3%,–,–
"CCTTACCTGACAAGAA (sugars k3 d10 k3, PS)",–,-11%,–
"AAAGAATGGCGCATAG (sugars k3 d10 k3, PS)",–,10%,–
"AATGTGTATTACTCTT (sugars k2 d9 e3 k2, PS)",–,15% and 17%,–
"CAGTGATGTCAGGTTT (sugars k3 d9 k3 e1, PS)",–,49%,–
